Reference: the NIST ThermoML archive (doi:10.1021/je100175j)

Experiments:
[1] = for Triple point temperature: DTA
[2] = Molar enthalpy of transition or fusion; conditions: Crystal; DSC

CN(C)C(=O)c1ccccc1 [N,N-dimethylbenzamide]
[1], Crystal
Conditions | vapor or sublimation pressure [kPa]
297.04 K | 0.00054
299.03 K | 0.00069
301.02 K | 0.00086
303.02 K | 0.0011
305 K | 0.00138
307 K | 0.00171
308.98 K | 0.00215
310.98 K | 0.00269
312.98 K | 0.00336
314.98 K | 0.00418

[1], Liquid, Closed cell (Static) method
Conditions | vapor or sublimation pressure [kPa]
301.98 K | 0.00134
303.99 K | 0.00162
305.97 K | 0.00195
307.96 K | 0.00232
310.43 K | 0.00289
312.3 K | 0.00343
314 K | 0.00399
316 K | 0.00472
317.97 K | 0.0056
319.95 K | 0.00658
321.94 K | 0.00776
323.93 K | 0.00909
325.88 K | 0.01066
327.91 K | 0.01239
329.85 K | 0.01439
331.88 K | 0.01676
333.84 K | 0.01949
335.85 K | 0.02238
337.8 K | 0.02598
339.82 K | 0.02969
341.77 K | 0.03432
343.8 K | 0.03916
345.73 K | 0.04503
347.77 K | 0.05151
349.68 K | 0.05866
351.75 K | 0.06697
353.64 K | 0.07571
355.7 K | 0.08611
357.62 K | 0.09722
359.68 K | 0.1102
361.66 K | 0.1244

Conditions | Triple point temperature [K]
[1], Crystal | 316.9

Conditions | Molar enthalpy of transition or fusion [kJ/mol]
[2] | 21.2

CNC(=O)c1ccccc1 [N-methylbenzamide]
[1], Liquid, Closed cell (Static) method
Conditions | vapor or sublimation pressure [kPa]
322.88 K | 0.00067
324.94 K | 0.00083
326.92 K | 0.00099
328.89 K | 0.00117
330.88 K | 0.0014
332.86 K | 0.00166
334.86 K | 0.00201
336.84 K | 0.00241
338.82 K | 0.00284
340.8 K | 0.00336
342.8 K | 0.00398
344.8 K | 0.0047
346.77 K | 0.00547
348.77 K | 0.0064
350.75 K | 0.00753
352.74 K | 0.00861
354.74 K | 0.01013
356.7 K | 0.01168
358.72 K | 0.01359
360.66 K | 0.01572
362.68 K | 0.01812
364.63 K | 0.02093
366.62 K | 0.02394
368.59 K | 0.0275
370.59 K | 0.03148
372.57 K | 0.03612
374.56 K | 0.04095
376.53 K | 0.04725
378.51 K | 0.05325
380.49 K | 0.06051
382.47 K | 0.06884
384.46 K | 0.07804
386.43 K | 0.08821
388.4 K | 0.101

[1], Crystal
Conditions | vapor or sublimation pressure [kPa]
324.88 K | 0.0005
326.83 K | 0.00063
328.93 K | 0.0008
330.82 K | 0.00098
332.75 K | 0.00121
334.8 K | 0.00152
336.82 K | 0.00189
338.85 K | 0.00235
340.81 K | 0.00284
342.75 K | 0.00348
344.79 K | 0.00426
345.79 K | 0.00471
346.8 K | 0.00528
347.77 K | 0.00575
348.76 K | 0.00631

Conditions | Triple point temperature [K]
[1], Crystal | 347.41

Conditions | Molar enthalpy of transition or fusion [kJ/mol]
[2] | 18.6

NC(=O)c1ccccc1 [benzamide]
[1]
Conditions | vapor or sublimation pressure [kPa]
324.11 K, Crystal, Calculated from knudsen effusion weight loss | 0.000108
326.19 K, Crystal, Calculated from knudsen effusion weight loss | 0.000136
328.19 K, Crystal, Calculated from knudsen effusion weight loss | 0.000169
330.1 K, Crystal, Calculated from knudsen effusion weight loss | 0.000215
332.16 K, Crystal, Calculated from knudsen effusion weight loss | 0.000267
334.18 K, Crystal, Calculated from knudsen effusion weight loss | 0.000332
336.1 K, Crystal, Calculated from knudsen effusion weight loss | 0.000415
338.17 K, Crystal, Calculated from knudsen effusion weight loss | 0.000513
340.19 K, Crystal, Calculated from knudsen effusion weight loss | 0.000634
342.11 K, Crystal, Calculated from knudsen effusion weight loss | 0.000794
344.18 K, Crystal, Calculated from knudsen effusion weight loss | 0.000981
344.8 K, Crystal, Closed cell (Static) method | 0.0011
346.18 K, Crystal, Calculated from knudsen effusion weight loss | 0.001205
346.78 K, Crystal, Closed cell (Static) method | 0.00135
348.77 K, Crystal, Closed cell (Static) method | 0.00166
350.76 K, Crystal, Closed cell (Static) method | 0.00204
352.74 K, Crystal, Closed cell (Static) method | 0.00247
354.72 K, Crystal, Closed cell (Static) method | 0.00301
356.71 K, Crystal, Closed cell (Static) method | 0.00366
358.69 K, Crystal, Closed cell (Static) method | 0.00438
360.68 K, Crystal, Closed cell (Static) method | 0.00534
362.68 K, Crystal, Closed cell (Static) method | 0.00631
364.64 K, Crystal, Closed cell (Static) method | 0.00769
366.62 K, Crystal, Closed cell (Static) method | 0.00906
368.6 K, Crystal, Closed cell (Static) method | 0.01095
370.59 K, Crystal, Closed cell (Static) method | 0.01299
372.59 K, Crystal, Closed cell (Static) method | 0.01556
374.55 K, Crystal, Closed cell (Static) method | 0.01829
376.53 K, Crystal, Closed cell (Static) method | 0.02177
378.52 K, Crystal, Closed cell (Static) method | 0.02586
380.43 K, Liquid, Closed cell (Static) method | 0.04263
380.48 K, Crystal, Closed cell (Static) method | 0.03068
382.43 K, Liquid, Closed cell (Static) method | 0.0481
382.47 K, Crystal, Closed cell (Static) method | 0.03596
384.38 K, Liquid, Closed cell (Static) method | 0.05455
384.44 K, Crystal, Closed cell (Static) method | 0.04227
386.42 K, Crystal, Closed cell (Static) method | 0.04949
386.56 K, Liquid, Closed cell (Static) method | 0.06285
388.3 K, Liquid, Closed cell (Static) method | 0.0702
388.4 K, Crystal, Closed cell (Static) method | 0.058
390.38 K, Crystal, Closed cell (Static) method | 0.06796
390.51 K, Liquid, Closed cell (Static) method | 0.08051
392.28 K, Liquid, Closed cell (Static) method | 0.0897
392.32 K, Crystal, Closed cell (Static) method | 0.07856
394.32 K, Crystal, Closed cell (Static) method | 0.09224
394.51 K, Liquid, Closed cell (Static) method | 0.102
396.37 K, Liquid, Closed cell (Static) method | 0.1144
398.34 K, Liquid, Closed cell (Static) method | 0.129
400.4 K, Liquid, Closed cell (Static) method | 0.1453
402.25 K, Liquid, Closed cell (Static) method | 0.1597
404.42 K, Liquid, Closed cell (Static) method | 0.1805
406.32 K, Liquid, Closed cell (Static) method | 0.1992
408.4 K, Liquid, Closed cell (Static) method | 0.2257
410.17 K, Liquid, Closed cell (Static) method | 0.2479
412.21 K, Liquid, Closed cell (Static) method | 0.279
414.31 K, Liquid, Closed cell (Static) method | 0.3088
416.23 K, Liquid, Closed cell (Static) method | 0.3462
418.37 K, Liquid, Closed cell (Static) method | 0.3819
420.28 K, Liquid, Closed cell (Static) method | 0.4246
422.2 K, Liquid, Closed cell (Static) method | 0.4667
424.23 K, Liquid, Closed cell (Static) method | 0.5208
426.18 K, Liquid, Closed cell (Static) method | 0.5676
428.17 K, Liquid, Closed cell (Static) method | 0.6262
430.15 K, Liquid, Closed cell (Static) method | 0.6836
432.17 K, Liquid, Closed cell (Static) method | 0.7596
434.17 K, Liquid, Closed cell (Static) method | 0.8264
436.2 K, Liquid, Closed cell (Static) method | 0.922
438.2 K, Liquid, Closed cell (Static) method | 1.002

Conditions | Triple point temperature [K]
[1], Crystal | 401.34

Conditions | Molar enthalpy of transition or fusion [kJ/mol]
[2] | 23.2
